In patent US9056067B2, “Pharmaceutical composition for enhancing immunity, and extract of Poria” (Sinphar Pharmaceutical Co., Ltd., priority 2003, dated 2015):

Columns and labels:
Assay type in all cases: in vivo, mice
IgG = IgG secretion by spleen cells in vitro (LPS, ELISA) after oral administration
Procedure: (§1) […] […] The control group was the mice feeding with an equal volume of saline (0.85% of NaCl). Mice were sacrificed at day five, and both the serum and spleen cells were collected. The sera were subsequently used to measure the concentration of IgG, IgM and IgA. The spleen cells were plated onto a 100 mm diameter culture plate and incubated at 37° C. for three hours. The non-adherent cells containing T-lymphocytes, B-lymphocytes and NK cells were collected and properly diluted as described in each assay.
(§2) The mouse to be sacrificed was cervical dislocated and sterilized with 70% ethanol. The cardiac punctuation was performed first to withdraw the blood. After the haemagglutination, the blood sample was subjected to centrifugation and the serum was collect. For isolation of spleen cells, the peritoneum was opened to remove the spleen. The fresh spleen was transferred to a culture plate containing 10 ml of RPMI-1640 culture medium. The spleen was then ground over a fine mesh to release the spleen cells. The spleen cells suspending in the medium were then removed and transferred to a 50-ml conical centrifuge tube. The tube was subjected to centrifugation at 1300 rpm for 10 min. The supernatant was discarded and the pellet was re-suspended in 1 ml of cold RBC lysing buffer containing EDTA-NH4Cl. The cells were incubated at room temperature for 10 min, followed by washing the cells three times with culture medium by centrifugation. The spleen cells were plated onto a 100 mm diameter culture plate and incubated at 37° C. for three hours. The non-adherent cells containing T-lymphocytes, B-lymphocytes and NK cells were collected and properly diluted as described in each assay.
(§3) An ELISA was performed in our study to measure the immunoglobulin concentration. Briefly, the spleen cells (5×10^5 cells/ml) were cultured in a medium containing RPMI 1640 supplemented with 10% fetal bovine serum (FBS), 2 mM L-glutamine, antibiotics and 5 μg/ml lipopolysaccharide (LPS; 1 μg/10^5 cells) for 5 days. LPS is a polyclonal activator of B lymphocyte. Culture spleen cell supernatants were collected at day 3, 4 and 5. IgA, IgG and IgM concentrations were measured using a sandwich ELISA technique.
A 96-well microtiter plate (Nunc-Immuno Plate, MaxiSorp, Nunc, Denmark) was precoated with 100 ng/well of capture antibodies at 4° C. overnight. The capture antibody was a rabbit anti-mouse IgG+IgA+IgM antibody (Zymed Laboratory, CA). The plate was washed with PBS-0.05% Tween 20 solution and blocked with PBS-1% gelatin. After the blocking, the properly diluted samples (1/10^5 diluted) and standard IgG ranged from 0.25 μg/ml to 0.039 μg/ml were added (100 μl/well). The plate was then incubated at 37° C. for 2 h. At the end of incubation, HRP-conjugated goat anti-mouse IgG (1:2,000 diluted; anti-whole IgG molecule; Zymed Laboratory, CA) was added (100 μl/well). After 1 h of incubation at 37° C., the color was developed using a substrate solution containing 0.1 M citrate buffer, pH 4.5, 0.03% H2O2 and 0.1% of o-phenylenediamine. The absorbence at 490 nm in each well was read using an ELISA reader (EL311, BioTek, VT), and the data was analyzed using log-logit model.

IgA = assay: Serum level of IgA (ELISA); conditions: for Effect on serum concentrations of IgA (in words): oral
Procedure: as §1, §2, §3
(§4) The procedure for IgA assay was similar to that for IgG assay, except that the samples were 1/10^4 diluted and standard IgA ranged from 1 μg/ml to 0.0156 μg/ml were added (100 μl/well). The secondary antibody for the assay was HRP-conjugated goat anti-mouse IgA (1:1000 diluted; Zymed Laboratory, CA).

[1] = system: immune cells (T cells/B cells); assay: Immunity response tests (overall statement); conditions: Table 2 to Table 10
Procedure: The Poria extract and the purified compounds from the Poria extract by chromatography prepared according to the methods of the present invention were tested by various immunity response experiments listed in the following.

IgM [2] = assay: IgM secretion by spleen cells in vitro (LPS, ELISA) after oral administration; conditions: for Dose with significant increase in IgM secretion by spleen cells: oral, after three days of in vitro culture
Procedure: as §1, §2, §3
as §4, with “IgM” for “IgA”, “IgM (1:1,000” for “IgA (1:1000”, “diluted; heavy chain-specific;” for “diluted;”

IgM [3] = assay: Serum level of IgM (ELISA); conditions: for Dose with significant increase in serum level of IgM: oral
Procedure: as §1, §2, §3
as §4, with “IgM” for “IgA”, “IgM (1:1,000” for “IgA (1:1000”, “diluted; heavy chain-specific;” for “diluted;”

[4] = oral 10 mg/kg/day for four days
[5] = oral 20 mg/kg/day for four days

Compound	IgG secretion by spleen cell, incubation day 3 (IgG; oral 5 mg/kg/day for four days)	IgG secretion by spleen cell, incubation day 4 (IgG; oral 5 mg/kg/day for four days)	IgG secretion by spleen cell, incubation day 5 (IgG; oral 5 mg/kg/day for four days)	IgG secretion by spleen cell, incubation day 3 (IgG; [4])	IgG secretion by spleen cell, incubation day 4 (IgG; [4])	IgG secretion by spleen cell, incubation day 5 (IgG; [4])	IgG secretion by spleen cell, incubation day 3 (IgG; [5])	IgG secretion by spleen cell, incubation day 4 (IgG; [5])	IgG secretion by spleen cell, incubation day 5 (IgG; [5])	Effect on serum concentrations of IgA (in words) (IgA)	Serum immunoglobulin concentration IgA (IgA; oral 5 mg/kg/day for four days)	Serum immunoglobulin concentration IgA (IgA; [4])	Serum immunoglobulin concentration IgA (IgA; [5])	Dosage at which potent [1]	Immunity enhancement in immune cells (T cells/B cells) (in words) [1]	IgM secretion by spleen cell, incubation day 3 (IgM [2]; oral 5 mg/kg/day for four days)	IgM secretion by spleen cell, incubation day 4 (IgM [2]; oral 5 mg/kg/day for four days)	IgM secretion by spleen cell, incubation day 5 (IgM [2]; oral 5 mg/kg/day for four days)	IgM secretion by spleen cell, incubation day 3 (IgM [2]; [4])	IgM secretion by spleen cell, incubation day 4 (IgM [2]; [4])	other results
C=C(CC[C@@H](C(=O)O)[C@H]1[C@H](O)C[C@@]2(C)C3=CC[C@H]4C(C)(C)C(=O)CC[C@]4(C)C3=CC[C@]12C)C(C)C [K3]	3.85 ± 0.73	3.43 ± 0.40	4.46 ± 0.95	3.18 ± 0.55	3.16 ± 0.62	3.48 ± 0.43	6.12 ± 0.70	7.10 ± 1.39	8.56 ± 1.34	no effect	3.65 ± 0.26 mg/mL	3.81 ± 0.46 mg/mL	3.55 ± 0.37 mg/mL	potent at dosage low than 2.5 or 5.0	immunity enhancement activities	222.42 ± 42.83	214.45 ± 28.51	277.52 ± 101.63	287.66 ± 44.44	294.30 ± 30.68	Effect on IgG secretion by spleen cells (in words) (IgG; oral): significantly suppressed; IgM secretion by spleen cell, incubation day 5 (IgM [2]; [4]): 309.51 ± 30.88; IgM secretion by spleen cell, incubation day 3 (IgM [2]; [5]): 372.14 ± 69.48; IgM secretion by spleen cell, incubation day 4 (IgM [2]; [5]): 519.53 ± 52.63; IgM secretion by spleen cell, incubation day 5 (IgM [2]; [5]): 606.44 ± 88.10; Dose with significant increase in IgM secretion by spleen cells (IgM [2]): 10 mg/kg/day; Dose with significant increase in serum level of IgM (IgM [3]): 5 mg/kg/day; Serum immunoglobulin concentration IgM (IgM [3]; oral 5 mg/kg/day for four days): 1.63 ± 0.11 mg/mL; Serum immunoglobulin concentration IgM (IgM [3]; [4]): 1.53 ± 0.14 mg/mL; Serum immunoglobulin concentration IgM (IgM [3]; [5]): 1.53 ± 0.13 mg/mL
C=C(CCC(C(=O)O)C1C(O)CC2(C)C3=CCC4C(C)(CCC(O)C4(C)C)C3=CCC12C)C(C)C (centres unmarked) [K4]	12.55 ± 3.08	12.99 ± 0.86	18.29 ± 0.92	6.54 ± 1.43	15.15 ± 5.16	22.59 ± 5.35	21.23 ± 3.19	19.11 ± 4.23	22.56 ± 3.84	no effect	3.33 ± 0.13 mg/mL	3.39 ± 0.25 mg/mL	3.54 ± 0.12 mg/mL	potent at dosage low than 2.5 or 5.0	immunity enhancement activities	463.65 ± 76.41	688.17 ± 85.78	649.89 ± 70.09	514.45 ± 70.30	733.58 ± 95.70	IgM secretion by spleen cell, incubation day 5 (IgM [2]; [4]): 807.32 ± 104.21; IgM secretion by spleen cell, incubation day 3 (IgM [2]; [5]): 747.6 ± 128.42; IgM secretion by spleen cell, incubation day 4 (IgM [2]; [5]): 746.50 ± 157.76; IgM secretion by spleen cell, incubation day 5 (IgM [2]; [5]): 857.49 ± 92.19; Dose with significant increase in IgM secretion by spleen cells (IgM [2]): ≥ 5 mg/kg/day; Dose with significant increase in serum level of IgM (IgM [3]): 5 mg/kg/day; Serum immunoglobulin concentration IgM (IgM [3]; oral 5 mg/kg/day for four days): 2.65 ± 0.21 mg/mL; Serum immunoglobulin concentration IgM (IgM [3]; [4]): 2.86 ± 0.16 mg/mL; Serum immunoglobulin concentration IgM (IgM [3]; [5]): 2.36 ± 0.16 mg/mL
